The text below walks through data of PMC8807399, “Synthesis, Characterization, and in vivo Evaluation of a Novel Potent Autotaxin-Inhibitor” (Frontiers in Pharmacology, 2022).

Converted amounts (≈) assume the structure as drawn. Where only a bound is given, the exact number is not on record here.

Data set [1] concerns the target T1, human ATX (Homo sapiens, UniProt Q13822).
T1 construct: made in house
Briefly: Autotaxin inhibition assay (Amplex-Red). Type of data set: biochemical. Particulars: ATX 3 nM, LPC 18:1 30 μM, read-out: hATX IC50. The procedure: Plates were sealed and incubated for 5 min. The final assay concentrations were ATX 3 nM, choline oxidase 2 U/ml, horseradish peroxidase 4 U/ml, LPC 18:1 30 μM, Amplex Red 50 μM, and DMSO 2%.

Data set [2] in a line: Lipophilicity (LogD, octanol/buffer). Type of data set: physicochemical. Particulars: 1-octanol / 25 mM phosphate buffer; pH 7.4, octanol/25 mM phosphate buffer. The procedure: The experiment started with the accurate coating of the hydrophobic layer (0.45 µm PVDF membranes), which was fixed on the bottom of each DIFI©-tube (Weidmann Medical Technology AG, Rapperswil, Switzerland). The coated membranes were then connected to a 96-well plate which has been prefilled with exactly 150 µl of the selected aqueous buffer solution (25 mM phosphate buffer, pH 7.4). The buffer solution contains already the compound of interest with a maximum starting concentration of 85 µM. To expand the measurement range down to logD = −0.5 and up to logD = +4, it is necessary to carry out the procedure at two different octanol/water ratios: One with an excess of octanol for hydrophilic compounds (logD < 1) and one with a low volume of octanol for the lipophilic compounds (logD > 1). Therefore, parts of the DIFI©-tubes were filled with 15 µl 1-octanol and another part with 1 µl 1-octanol. The resulting sandwich guarantees that the membrane was completely dipped in the buffer solution. The plate was then sealed and shaken for 12 h at room temperature (23°C). During this time, the substance is distributed between the layer, the octanol, and the buffer solution. After having reached a distribution equilibrium, the DIFI©-tubes were easily disassembled from the top of the 96-well plate, so that the remaining sample concentration in the aqueous phase could be analyzed by LC/MS.

The nature of data set [3]: HT-solubility assay. Type of data set: physicochemical. Particulars: aqueous buffer, thermodynamic from solid; phosphate buffer pH 6.5. The procedure:
This assay was performed on a TECAN station starting from 10 mM DMSO stock solutions of the test compounds. Two aliquots of the test compound were dried and dissolved in phosphate buffer at pH 6.5. Sonication supports optimal re-solubilization. The solutions were then filtered and diluted (3 different dilution levels for each compound) followed by quantification of the dissolved material with Rapid-Fire MS. Quantification was performed for each test compound with a 6-point calibration curve prepared with the same DMSO starting solution.

Data set [4] can be described thus: In vitro microsomal stability, human. Type of data set: in vitro ADME. As to conditions: human microsomes, 1 µM; value of 10 = low clearance, essentially below detection limit. The procedure:
(§1) Incubations of a test compound at a concentration of 1 µM with microsomes (0.5 mg/ml) from the appropriate species (human, mouse, or rat) plus cofactor NADPH were performed in 96-well plates at 37°C on a TECAN automated liquid handling system (Tecan Group Ltd., Männedorf, Switzerland). After pre-incubation of the test compound with the microsomes for 10 min, the enzymatic reaction was started by the addition of cofactors. Aliquots of the incubations are removed at 1, 3, 6, 9, 15, 25, 35, and 45 min and are then quenched with 1:3 (v/v) acetonitrile containing internal standards. Samples were then cooled and centrifuged before analysis of the supernatant by LC-MS/MS. Logarithmic Peak area ratios (test compound peak area/internal standard peak area) were plotted against incubation time and a linear fit made to the data with emphasis upon the initial rate of compound disappearance. The slope of the fit was then used to calculate the intrinsic clearance: Clint (µL/min/mg protein) = −slope (min-1) * 1,000/[protein concentration (mg/ml)].

A short description of data set [5]: In vitro microsomal stability, mouse. Type of data set: in vitro ADME. Particulars: mouse microsomes, 1 µM; value of 10 = low clearance, essentially below detection limit. As for the experimental part:
as §1

A short description of data set [6]: Glutathione addition screening. Particulars: human liver microsomes + NADPH + GSH. Type of data set: in vitro ADME. The procedure: All sample handling was performed based on a 96-well plate format using an automated pipetting system. The test compounds, positive controls (diclofenac, troglitazone, nefazodone, 4-[[1-(4-fluorophenyl)-2-methyl-1H-imidazol-4-yl]ethynyl]-2-methylpyridine) and solvent control (DMSO) were incubated with human liver microsomes supplemented with NADPH and reduced GSH. Stable GSH conjugates whose production can be assumed to be the result of chemically reactive metabolites were detected using a quadrupole time of flight mass spectrometer run in untargeted full scan accurate mass MSE mode (Waters Xevo G1 QTOFMSE; Waters GmbH, Eschborn, Germany). This generic GSH adduct detection method and the assay workflow are taking advantage of the specific fragmentation behavior of the peptide moiety upon collision induced dissociation of GSH adducts and so are largely independent of the conjugate (“X”) itself.

Data set [7] in a line: In vitro microsomal stability, rat. Type of data set: in vitro ADME. As to conditions: rat microsomes, 1 µM; value of 10 = low clearance, essentially below detection limit. As for the experimental part:
as §1

Take `O=C(/C=C/c1ccc(OC(F)(F)F)cc1)N1C[C@@H]2CN(C(=O)c3ccc4[nH]nnc4c3)C[C@H]2C1` [Compound 11, (E)-1-((3aR,6aR)-5-(1H-benzo[d][1,2,3]triazole-5-carbonyl)hexahydropyrrolo[3,4-c]pyrrol-2(1H)-yl)-3-(4-(trifluoromethoxy)phenyl)prop-2-en-1-one]: the IC50 in data set [1] is 1 nM. In data set [2], this compound returned a logD at 12 h of 2.3. Further, the solubility in data set [3] was < 1 µg/mL. In addition, the “Mic CL h” value in data set [4] is reported as 10/10/na µL/m/mg prot. Moreover, the “Mic CL m” value in data set [5] is 10/10/na µL/m/mg prot. Moreover, in data set [6], the GSH adducts result is “Neg”.

As to `O=C(OCc1cc(Cl)cc(Cl)c1)N1CCC2(CC1)CN(C(=O)c1ccc3[nH]c(=O)oc3c1)C2` [Compound 4, 3,5-Dichlorobenzyl 2-(2-oxo-2,3-dihydrobenzo[d]oxazole-6-carbonyl)-2,7-diaza-spiro[3.5]-nonane-7-carboxylate], the IC50 in data set [1] was determined as 17 nM. In data set [2], this compound came in with a logD at 12 h of 3.6. For the same compound, the solubility in data set [3] is < 1 µg/mL. Moreover, the “Mic CL h” value in data set [4] is given as 54 µL/m/mg prot. Besides, the “Mic CL m” value in data set [5] worked out at 149 µL/m/mg prot. The GSH adducts entry in data set [6] was “pos”.

Consider `O=C(OCc1cc(Cl)cc(Cl)c1)N1C[C@@H]2CN(C(=O)c3ccc4[nH]c(=O)oc4c3)C[C@@H]2C1` [Compound 5, (3aR,6aS)-3,5-Dichlorobenzyl 5-(2-oxo-2,3-dihydrobenzo[d]oxazole-6-carbonyl)-hexahydropyrrolo[3,4-c]pyrrole-2(1H)-carboxylate], for which, in data set [1], the IC50 is 65 nM. Moreover, the logD at 12 h in data set [2] amounted to 3.3. The compound also returned a solubility in data set [3] of 19 µg/mL (≈ 39.9 µM). In addition, the “Mic CL h” value in data set [4] came out at 64 µL/m/mg prot. The “Mic CL m” value in data set [5] is given as 288 µL/m/mg prot. Besides, the “Mic CL r” value in data set [7] stood at 335 µL/m/mg prot. For the same compound, the GSH adducts entry in data set [6] was “pos”.

`O=C(OCc1cc(Cl)cc(Cl)c1)N1CC2(CCN(C(=O)c3ccc4[nH]c(=O)oc4c3)CC2)C1` [Compound 3, trans-3,5-Dichlorobenzyl 7-(2-oxo-2,3-dihydrobenzo[d]oxazole-6-carbonyl)-2,7-diaza-spiro[3.5]nonane-2-carboxylate]: the IC50 in data set [1] worked out at 220 nM. The log distribution coefficient (logD) at 12 h in data set [2] worked out at 3.6. For the same compound, the solubility in data set [3] is < 1 µg/mL. For the same compound, the “Mic CL h” value in data set [4] amounted to 92 µL/m/mg prot. Besides, the “Mic CL m” value in data set [5] is listed as 81 µL/m/mg prot.

Consider `O=C(OCc1cc(Cl)cc(Cl)c1)N1C[C@@H]2CN(C(=O)c3ccc4[nH]nnc4c3)C[C@@H]2C1` [Compound 8, (3aR,6aS)-3,5-dichlorobenzyl 5-(1H-benzo[d][1,2,3]triazole-5-carbonyl)hexahydro-pyrrolo[3,4-c]pyrrole-2(1H)-carboxylate], for which, in data set [1], the half-inhibitory concentration (IC50) amounted to 265 nM. The compound further yielded a logD at 12 h in data set [2] of 3.1. Besides, the solubility in data set [3] worked out at 34 µg/mL (≈ 73.9 µM). The “Mic CL h” value in data set [4] is 23 µL/m/mg prot. Further, in data set [5], the “Mic CL m” value worked out at 68 µL/m/mg prot. Moreover, the GSH adducts result in data set [6] was “pos”.

In the case of `O=C(OCc1cc(Cl)cc(Cl)c1)N1CC[C@@H]2CN(C(=O)c3ccc4[nH]nnc4c3)C[C@H]2C1` (relative stereo) [Compound 6, trans-2-(1H-Benzotriazole-5-carbonyl)-octahydro-pyrrolo[3,4-c]pyridine-5-carboxylic acid 3,5-dichloro-benzyl ester], the IC50 in data set [1] turned out to be 4 nM. Further, the logD at 12 h in data set [2] amounted to 3.5. The compound also showed a solubility in data set [3] of 9 µg/mL (≈ 19 µM). The “Mic CL h” value in data set [4] is 23 µL/m/mg prot. For the same compound, the “Mic CL m” value in data set [5] amounted to 65 µL/m/mg prot. In data set [6], the GSH adducts result was “pos”.

Take `O=C(OCc1cc(Cl)cc(Cl)c1)N1CC[C@@H]2CN(C(=O)c3ccc4[nH]c(=O)oc4c3)C[C@H]2C1` (relative stereo) [Compound 2, trans-3,5-Dichlorobenzyl 2-(2-oxo-2,3-dihydrobenzo[d]oxazole-6-carbonyl)hexa-hydro-1H-pyrrolo[3,4-c]pyridine-5(6H)-carboxylate]: in data set [1], the half-inhibitory concentration (IC50) stood at 3 nM. This compound displayed a logD at 12 h in data set [2] of 3.7. Further, the solubility in data set [3] is < 1 µg/mL. Also, the “Mic CL h” value in data set [4] stood at 39 µL/m/mg prot. Further, the “Mic CL m” value in data set [5] turned out to be 74 µL/m/mg prot. For the same compound, the GSH adducts entry in data set [6] is “formation of GSH adducts was still observed and pos”.

On to `O=C(OCc1cc(Cl)cc(Cl)c1)N1CC[C@@H]2CN(C(=O)c3ccc4[nH]nnc4c3)C[C@@H]2CC1` [Compound 10, cis-3,5-Dichlorobenzyl 2-(1H-benzo[d][1,2,3]triazole-5-carbonyl)octahydropyrrolo-[3,4-d]azepine-6(7H)-carboxylate], for which the IC50 in data set [1] is 1 nM. In data set [3], the solubility came out at 7 µg/mL (≈ 14.3 µM). Further, in data set [4], the “Mic CL h” value is listed as 252 µL/m/mg prot. The “Mic CL m” value in data set [5] came to 727 µL/m/mg prot.

Turning to `O=C(CCN1CCN(C(=O)OCc2cc(Cl)cc(Cl)c2)CC1)c1ccc2[nH]c(=O)oc2c1` [Compound 1, reference compound], in data set [2], the logD at 12 h is 2.7. Besides, the solubility in data set [3] is < 1 µg/mL. Also, in data set [4], the “Mic CL h” value is given as 65 µL/m/mg prot. The “Mic CL m” value in data set [5] turned out to be 78 µL/m/mg prot. For the same compound, the “Mic CL r” value in data set [7] turned out to be 84 µL/m/mg prot. For the same compound, the GSH adducts result in data set [6] is “pos”.

In the case of `O=C(OCc1cc(Cl)cc(Cl)c1)N1CCC2(CC1)CN(C(=O)c1ccc3[nH]nnc3c1)C2` [Compound 9, 3,5-Dichlorobenzyl 2-(1H-benzo[d][1,2,3]triazole-5-carbonyl)-2,7-diazaspiro[3.5]-nonane-7-carboxylate], the IC50 in data set [1] amounted to 67 nM. In data set [2], this compound came in with a log distribution coefficient (logD) at 12 h of 3.6. In data set [3], the solubility worked out at 3 µg/mL (≈ 6.32 µM). Moreover, the “Mic CL h” value in data set [4] was 30 µL/m/mg prot. Also, in data set [5], the “Mic CL m” value amounted to 63 µL/m/mg prot. The “Mic CL r” value in data set [7] was determined as 29 µL/m/mg prot. The GSH adducts result in data set [6] is “pos”.
